# Reference: the supplement of paper PMC13380429
# What was measured:
# Details in all cases: 72 h
# Caco-2 [1] = assay: cell viability relative to DMSO; higher = less toxic
# Calu-3 [2] = assay: as above
# HepG2 [3] = assay: as above
# Vero E6 [4] = assay: as above
# Caco-2 [5] = assay: relative viability EC50 (midpoint between 100% and the lowest measured viability); higher = less toxic
# Calu-3 [6] = assay: as above
# HepG2 [7] = assay: as above
# Vero E6 [8] = assay: as above
# Caco-2 [9] = assay: drug sensitivity score (DSS) for viability; higher = more toxic; extreme values may be limits of the assay
# Calu-3 [10] = assay: as above
# HepG2 [11] = assay: as above
# Vero E6 [12] = assay: as above
# U2OS [13] = assay: cell viability relative to DMSO; higher = less toxic
# U2OS [14] = assay: relative viability EC50 (midpoint between 100% and the lowest measured viability); higher = less toxic
# U2OS [15] = assay: drug sensitivity score (DSS) for viability; higher = more toxic; extreme values may be limits of the assay
SMILES,cell viability (Caco-2 [1]; 1 nM),cell viability (Caco-2 [1]; 10 nM),cell viability (Caco-2 [1]; 100 nM),cell viability (Caco-2 [1]; 1000 nM),cell viability (Caco-2 [1]; 10000 nM),cell viability (Calu-3 [2]; 1 nM),cell viability (Calu-3 [2]; 10 nM),cell viability (Calu-3 [2]; 100 nM),cell viability (Calu-3 [2]; 1000 nM),cell viability (Calu-3 [2]; 10000 nM),cell viability (HepG2 [3]; 1 nM),cell viability (HepG2 [3]; 10 nM),cell viability (HepG2 [3]; 100 nM),cell viability (HepG2 [3]; 1000 nM),cell viability (HepG2 [3]; 10000 nM),cell viability (Vero E6 [4]; 1 nM),cell viability (Vero E6 [4]; 10 nM),cell viability (Vero E6 [4]; 100 nM),cell viability (Vero E6 [4]; 1000 nM),cell viability (Vero E6 [4]; 10000 nM),relative viability EC50 (Caco-2 [5]),relative viability EC50 (Calu-3 [6]),relative viability EC50 (HepG2 [7]),relative viability EC50 (Vero E6 [8]),drug sensitivity score (Caco-2 [9]),drug sensitivity score (Calu-3 [10]),drug sensitivity score (HepG2 [11]),drug sensitivity score (Vero E6 [12]),cell viability (U2OS [13]; 1 nM),cell viability (U2OS [13]; 10 nM),cell viability (U2OS [13]; 100 nM),cell viability (U2OS [13]; 1000 nM),cell viability (U2OS [13]; 10000 nM),relative viability EC50 (U2OS [14]),drug sensitivity score (U2OS [15])
O=c1cc(-c2ccc(O)cc2)oc2cc(O)cc(O)c12 [apigenin],93.9%,94.2%,105%,94.8%,90.4%,104%,103%,101%,99.3%,94.7%,92.8%,105%,97.7%,102%,94%,101%,101%,101%,95.2%,92%,> 10 µM,> 10 µM,> 10 µM,> 10 µM,0,0,0,0,–,–,–,–,–,–,–
CCCCCC(O)CCCC(=O)O (stereo not drawn),95.3%,79%,82.1%,93.7%,101%,98.6%,103%,101%,95.9%,99.4%,90.7%,95.5%,85.8%,98.5%,92.5%,86.1%,102%,95.1%,95.3%,90.2%,> 10 µM,> 10 µM,> 10 µM,> 10 µM,0.5,0,0,0,98.1%,97.8%,100%,95.8%,102%,> 10 µM,0
COc1ccccc1N1CCN(CCCCN2C(=O)c3ccccc3C2=O)CC1 [NAN-190],99.7%,85.8%,99.2%,86.6%,94.8%,95.5%,94.3%,107%,101%,102%,91.6%,108%,94%,109%,103%,99.4%,94.5%,91.5%,94.3%,103%,> 10 µM,> 10 µM,> 10 µM,> 10 µM,0,0,0,0,103%,100%,101%,94.7%,101%,> 10 µM,0
